According to US11549123B2, “Plant EPSP synthases and methods of use” (PIONEER HI-BRED INTERNATIONAL, INC., priority 2015, dated 2023):
Substitutions are numbered along the chain they refer to.

Legend:
[1] = molecular target: T1, Zea mays EPSPS variant S-N at positions 103-107 (Zea mays, UniProt O24566, P106N/T102S); assay: EPSPS substrate saturation kinetics, maize variant 103S 107N; format: biochemical
T1 sequence (O24566 with tags, fused parts or gaps T102S/P106N): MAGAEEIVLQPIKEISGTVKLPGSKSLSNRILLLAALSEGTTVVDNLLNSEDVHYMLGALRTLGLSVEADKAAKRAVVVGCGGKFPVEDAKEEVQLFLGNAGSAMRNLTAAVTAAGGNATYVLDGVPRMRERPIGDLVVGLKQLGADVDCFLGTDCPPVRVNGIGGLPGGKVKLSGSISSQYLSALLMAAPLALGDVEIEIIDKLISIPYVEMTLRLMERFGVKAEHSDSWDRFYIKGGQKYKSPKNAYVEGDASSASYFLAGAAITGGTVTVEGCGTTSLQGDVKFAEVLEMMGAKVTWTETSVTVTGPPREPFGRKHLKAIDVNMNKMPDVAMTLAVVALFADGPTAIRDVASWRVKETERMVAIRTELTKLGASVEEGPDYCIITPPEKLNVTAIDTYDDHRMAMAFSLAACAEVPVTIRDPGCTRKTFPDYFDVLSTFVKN
Protocol: (§1) EPSPS activity was determined by quantifying the phosphate generated from the EPSPS reaction. Release of inorganic phosphate was coupled to reaction with 2-amino-6-mercapto-7-methylpurine ribonucleoside, catalyzed by purine-nucleoside phosphorylase (M R Webb, Proc. Natl. Acad. Sci. 89:4884-4887, 1992). The absorbance change that occurs was monitored at 360 nm, where the extinction is 11,200 M^−1 cm^−1, with a Spectramax plate reader (Molecular Devices). To determine kinetic parameters, the varied substrate was present at seven concentrations (the eighth being the blank, containing no substrate) ranging from 4 to 400 uM and the unvaried substrate present at saturation. Six microliters of 50-fold concentrated stock solutions of the varied substrate were placed in the wells of the 96-well assay plate and reactions were started with the addition of a mixture containing 25 mM Hepes, pH 7, 100 mM KCl, 0.3 mM 2-amino-6-mercapto-7-methylpurine ribonucleosde, 1 uM (1 unit/ml) purine-nucleoside phosphorylase (Sigma N8264) and 200 uM of the non-varied substrate. Reactions were monitored with a Spectramax plate reader. The Michaelis-Menten kinetics protocol of the Spectramax software was customized for the substrate concentrations used. The software returns values of KM and Vmax using the Lineweaver-Burke transformation of the Michaelis-Menten equation. To determine kcat, Vmax (uM/min) was divided by the enzyme concentration (uM). […] KI was then calculated from the following form of the Michaelis-Menten equation for competitive inhibition: KI=KM[I]/(KM app−KM) KM approximates the dissociation constant of the enzyme-substrate complex while kcat is the rate of conversion of substrate to product when the substrate concentration is saturating. kcat/KM is a widely accepted parameter for catalytic efficiency when substrate concentration is low (˜KM). […] The parameter kcat/KM×KI is used to quantify both catalytic efficiency and insensitivity and thus the overall fitness of the enzyme. […]

[2] = molecular target: T2, Zea mays EPSPS variant G102A (Zea mays, UniProt O24566, G101A); assay: EPSPS substrate saturation kinetics, G102A
T2 sequence (O24566 with tags, fused parts or gaps G101A): T1 sequence (O24566 with tags, fused parts or gaps T102S/P106N) with G102A, S103T, N107P

[3] = molecular target: T3, Zea mays EPSPS variant V-G at positions 103-107 (Zea mays, UniProt O24566, P106G/T102V); assay: EPSPS substrate saturation kinetics, maize variant 103V 107G; format: biochemical
T3 sequence (O24566 with tags, fused parts or gaps T102V/P106G): T1 sequence (O24566 with tags, fused parts or gaps T102S/P106N) with S103V, N107G
Protocol: as §1

[4] = PEP as substrate, glyphosate as inhibitor

C=C(OP(=O)(O)O)C(=O)O [PEP, phosphoenolpyruvate]
kcat ([1]; PEP varied): 161 | kcat/KM ([2]; PEP): 2.2 min^−1uM^−1 | kcat ([2]; PEP varied): 11.6 s⁻¹ | kcat ([3]; PEP varied): 324

O=C(O)CNCP(=O)(O)O [glyphosate, N-phosphonomethylglycine]
Ki [1]: 244 µM | (kcat/KM)*KI [1, 4]: 1033 | Ki ([2]; KI (glyphosate), competitive with PEP): 2290 µM | Ki ([2]; Ki, substrate saturation, Zm-G102A): 1340 µM | (kcat/KM)*KI [2, 4]: 5137 | (kcat/KM)*KI ([2]; substrate saturation, Zm-G102A): 2820 | Ki [3]: 480 µM | (kcat/KM)*KI [3, 4]: 1170
